Measurements published in patent US20220249617A1, “CYCLODEXTRIN BASED INJECTABLE COFORMULATIONS OF SGLT2 INHIBITORS AND INCRETIN PEPTIDES” (MEDIMMUNE LIMITED, priority 2019, published 2022).
In brackets after ≈: the same amount, converted by molar mass. One block for each compound: values may come before it.

Key:
[1] = target 17 mg/mL DPZ; formulation containing cyclodextrin (HPβCD); visual observation
Procedure: The appropriate aqueous vehicle was added onto the powder to achieve a final concentration of 17 mg/mL, vortex mixed, and sonicated. The pass/fail criteria for the formulation was determined through visual observation.
The screening assay was therefore designed to target a concentration of 17 mg/mL, corresponding to a […] dose in 600 μL dose volume. […] The excipients screened included PEG 400, PG, DSPE-PEG 2000, Glycerol, Kolliphor 188, HPβCD, and BSA. […] Only the formulation containing cyclodextrin was successful and therefore taken forward for further evaluation as a potential co-formulation vehicle.

[2] = Pharmacokinetic study after subcutaneous injection in rats; type: in vivo; conditions: DPZ 0.5 mg/kg
Procedure: For the PK study, MEDI0382 alone in buffer was prepared at 0.5 mg/mL in 50 mM Na Phosphate buffer pH 7.8+1.85% propylene glycol (PG) (J. T. Baker).
The cyclodextrin vehicle used for the PK study was 7% w/v HPβCD in 50 mM Na Phosphate buffer pH 7.8+0.5% v PG. The PG was added to adjust the osmolarity of the formulations to 260 mOsm. […] In parallel, MEDT0382 alone in buffer was prepared at 0.5 mg/mL in 50 mM NaP buffer pH 7.8+1.85% v/v PG. The formulations were then diluted to 1/10 with their corresponding vehicle.
Three animals per group were included, and serial blood sampling for PK evaluation occurred at 0.5, 1, 2, 4, 7, and 24 hr post dose.

[3] = oral administration; cited from earlier work
physchem = assay: physchem
Procedure: Various HPβCD (Kleptose HPB, Roquette) solutions at increasing concentrations were prepared in water ranging from 5% to 20% (w/v). Briefly, HPβCD was weighed in a volumetric flask and purified water was added up to 80% (v/v) of final volume. The flask was mixed until full solubilisation and made up to final volume with purified water. […] Each concentration was done in duplicate. The formulations were left under magnetic stirring for 21 h 40 min. Each sample was then transferred to a 1.5 mL eppendorf and centrifuged at 13,000 rpm for 10 min. Then 200 μL was taken from the supernatant and centrifuged again in a 1.5 mL eppendorf for 30 min at 13,000 rpm. The samples were finally diluted in buffer A (95% HPLC water/5% ACN+0.03% TFA), and the concentration was measured by UPLC against a calibration curve validated with quality controls.

DIO mice = conditions: repeat injections; cited from earlier work
[4] = target: T1, human recombinant glucagon receptor (Homo sapiens, UniProt P47871); assay: In vitro potency assay, cAMP response element luciferase reporter in CHO cells; type: cell-based; conditions: MEDI0382 in buffer, in cyclodextrin, and co-formulated with DPZ
T1 construct: expressed in transfected cells; host or cells: CHO-K1
Procedure: (§1) Briefly, cells were plated at 20,000 cells per well in 96-well white microtiter plates (Corning, USA) and incubated with serially diluted peptide samples for 4 hours prior to lysis and measurement of cAMP dependent luciferase activity using Steady-Glo luciferase substrate (Promega, USA). Plates were read on a SpectraMax Paradigm plate reader (Molecular Devices, USA), and 10-point concentration-response curves were generated in triplicate. Results were expressed as the relative potency of the test sample compared to a reference ligand by calculating the ratio of the reference and sample EC50 values from a 4-PL fit following a test for parallelism using SoftMax Pro software (Molecular Devices, USA), and the reported data was the mean of two independent assays. Curves were fitted using nonlinear regression analysis in GraphPad Prism software 6.03 (GraphPad, USA).
(§2) Although HPβCD enhances the physical stability of the peptide, the loss of alpha-helix could have a dramatic impact on the potency of the peptide. […] The in vitro potency was assessed on CHO cells over-expressing human recombinant GLP-1 or glucagon receptors, and the activity was reported as EC50 values after measurement of cAMP accumulation.

[5] = target: T2, human recombinant GLP-1 receptor (Homo sapiens, UniProt P43220); assay: as above; type: cell-based; conditions: MEDI0382 in buffer, in cyclodextrin, and co-formulated with DPZ
T2 construct: expressed in transfected cells; host or cells: CHO-K1
Procedure: as §1, §2

non-human primates = conditions: repeat injections; cited from earlier work
[6] = tested on: overweight and obese patients with type 2 diabetes; conditions: cited from earlier work
[7] = cited from earlier work

T2 sequence (P43220 24-463): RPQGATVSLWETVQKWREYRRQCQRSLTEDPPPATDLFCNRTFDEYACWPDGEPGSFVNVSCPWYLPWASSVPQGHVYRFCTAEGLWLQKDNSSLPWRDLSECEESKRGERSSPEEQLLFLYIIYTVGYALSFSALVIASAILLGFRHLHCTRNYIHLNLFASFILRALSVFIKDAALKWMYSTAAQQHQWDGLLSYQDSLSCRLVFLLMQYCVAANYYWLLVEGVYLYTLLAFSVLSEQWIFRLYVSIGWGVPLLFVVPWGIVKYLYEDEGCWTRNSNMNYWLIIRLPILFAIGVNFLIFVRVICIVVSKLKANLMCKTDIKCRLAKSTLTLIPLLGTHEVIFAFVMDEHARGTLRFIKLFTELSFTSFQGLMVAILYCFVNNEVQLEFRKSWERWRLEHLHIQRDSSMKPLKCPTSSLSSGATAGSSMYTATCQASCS
T1 sequence (P47871 26-477): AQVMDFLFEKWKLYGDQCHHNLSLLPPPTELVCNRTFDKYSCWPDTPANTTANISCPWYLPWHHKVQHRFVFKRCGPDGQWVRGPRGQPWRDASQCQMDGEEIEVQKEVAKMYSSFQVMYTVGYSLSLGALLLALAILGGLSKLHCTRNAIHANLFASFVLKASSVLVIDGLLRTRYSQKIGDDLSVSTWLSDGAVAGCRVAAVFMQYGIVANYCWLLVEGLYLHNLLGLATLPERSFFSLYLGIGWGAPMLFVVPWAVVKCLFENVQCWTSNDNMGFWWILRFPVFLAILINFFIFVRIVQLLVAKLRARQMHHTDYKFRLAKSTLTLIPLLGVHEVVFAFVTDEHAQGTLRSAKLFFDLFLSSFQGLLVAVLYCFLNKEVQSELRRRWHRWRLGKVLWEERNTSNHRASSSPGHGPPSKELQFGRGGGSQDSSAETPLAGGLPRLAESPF

- Solubility screen result (pass/fail) [1]: successful
- PK of DPZ in the presence of MEDI0382 [2]: unchanged
- amount of HPβCD required to increase the solubility up to 17 mg/mL (physchem): 5.5 % (w/v)
- solubility change with increasing HPβCD concentration (physchem): linearly increased
- stoichiometry of inclusion complex (phase solubility) (physchem): 1:1
- solubility at 21.67 h (physchem; water, thermodynamic from solid): 1600 µg/mL (≈ 3.91 mM)
Compound: CCOc1ccc(Cc2cc([C@@H]3O[C@H](CO)[C@@H](O)[C@H](O)[C@H]3O)ccc2Cl)cc1 [DPZ, dapagliflozin]
- absolute bioavailability [3]: 78%

- solubility change with increasing HPβCD concentration (physchem): linear solubility increase
Compound: OC[C@H]1O[C@@H](c2ccc(Cl)c(Cc3ccc(O[C@H]4CCOC4)cc3)c2)[C@H](O)[C@@H](O)[C@@H]1O [EPZ, empagliflozin]

- EC50 (cAMP accumulation), change between formulations [4]: no change of EC50
- EC50 (cAMP accumulation), change between formulations [5]: no change of EC50
Compound: CCCCCCCCCCCCCCCC(=O)N[C@@H](CCC(=O)NCCCC[C@H](NC(=O)[C@H](CC(=O)O)NC(=O)[C@H](CO)NC(=O)[C@@H](NC(=O)[C@H](Cc1ccccc1)NC(=O)[C@@H](NC(=O)CNC(=O)[C@H](CCC(N)=O)NC(=O)[C@H](CO)NC(=O)[C@@H](N)Cc1c[nH]cn1)[C@@H](C)O)[C@@H](C)O)C(=O)N[C@@H](CO)C(=O)N[C@@H](CCC(=O)O)C(=O)N[C@@H](Cc1ccc(O)cc1)C(=O)N[C@@H](CC(C)C)C(=O)N[C@@H](CC(=O)O)C(=O)N[C@@H](CO)C(=O)N[C@@H](CCC(=O)O)C(=O)N[C@@H](CCCNC(=N)N)C(=O)N[C@@H](C)C(=O)N[C@@H](CCCNC(=N)N)C(=O)N[C@@H](CC(=O)O)C(=O)N[C@@H](Cc1ccccc1)C(=O)N[C@H](C(=O)N[C@@H](C)C(=O)N[C@@H](Cc1c[nH]c2ccccc12)C(=O)N[C@@H](CC(C)C)C(=O)N[C@@H](CCC(=O)O)C(=O)N[C@@H](C)C(=O)NCC(=O)NCC(=O)O)C(C)C)C(=O)O [MEDI0382]
- effect on weight and glucose (DIO mice): marked weight loss and robust glucose control
- effect on weight and glucose (non-human primates): marked weight loss and robust glucose control
- clinical efficacy [6]: glucose, weight and liver fat lowering efficacy

Compound: glucagon
- pKa of N-terminal His alpha-amino group [7]: 7.6
- pKa of N-terminal His imidazole group [7]: 7.4
